Source: PubChem BioAssay (NCI)
“And” between values parts separate entries of the source, which are not always exact repeats. Equal entries are not always repeated.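 Dose response: 5 concentrations. Exposure: 48 h. Format: 96-well plates. Endpoint: linear interpolation; highest concentration if not reached. TGI: concentration producing complete growth inhibition.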

Assays:
HOP-18 NSCLC = assay: NCI anticancer screen, dose series, 48 h
DMS 273 small cell lung = assay: NCI anticancer screen, dose series, 48 h

| Compound | TGI (HOP-18 NSCLC) [µM] | TGI (DMS 273 small cell lung) |
| --- | --- | --- |
| COc1ccc(C2S/C(=C\c3ccc(O)cc3)C(=O)N2NC(=O)Cc2ccccc2)cc1 (stereo not given) | > 100 | > 100 µM |
| CC(C)=CCSC1CC2C(CC1(C)O)C2(C)C (stereo not given) | – | 29.9 µM and 21.5 µM |
| COc1ccc(C(C#N)NNc2nc(C)cc(=O)[nH]2)cc1OC (stereo not given) | > 100 | > 100 µM |
| COC(=O)C1C2C=CC(C2)N1[C@@H](C)c1ccccc1 (stereo not given in full) | > 100 | > 100 µM |
| CC(=O)OC1c2ccccc2CCCCCCC12OCCO2 (stereo not given) | > 100 | – |
| CC(=O)NC1=C(C)C(=O)c2c(nc3n2CCC3O)C1=N (stereo not given) | 31.8 | 33.2 µM |
